Laboratory results: patent publication US7115648B2, “Indole-amide derivatives and their use as glycogen phosphorylase inhibitors” (AstraZeneca AB, priority 2002, dated 2006)
Each block holds one molecule with its values, some of them ahead of it.

Experiments:
[1] = test system: hepatocytes; settings: cited from earlier work
[2] = test system: db/db and ob/ob mice; settings: dose related; cited from earlier work
[3] = test system: conscious dogs; settings: cited from earlier work
[4] = target: T1, Human recombinant liver glycogen phosphorylase a (hrl GPa) (Homo sapiens, UniProt P06737); experiment: Glycogen degradation multienzyme coupled assay (NADH fluorescence); format: biochemical; settings: glycogen degradation direction
T1 sequence (P06737 1-847): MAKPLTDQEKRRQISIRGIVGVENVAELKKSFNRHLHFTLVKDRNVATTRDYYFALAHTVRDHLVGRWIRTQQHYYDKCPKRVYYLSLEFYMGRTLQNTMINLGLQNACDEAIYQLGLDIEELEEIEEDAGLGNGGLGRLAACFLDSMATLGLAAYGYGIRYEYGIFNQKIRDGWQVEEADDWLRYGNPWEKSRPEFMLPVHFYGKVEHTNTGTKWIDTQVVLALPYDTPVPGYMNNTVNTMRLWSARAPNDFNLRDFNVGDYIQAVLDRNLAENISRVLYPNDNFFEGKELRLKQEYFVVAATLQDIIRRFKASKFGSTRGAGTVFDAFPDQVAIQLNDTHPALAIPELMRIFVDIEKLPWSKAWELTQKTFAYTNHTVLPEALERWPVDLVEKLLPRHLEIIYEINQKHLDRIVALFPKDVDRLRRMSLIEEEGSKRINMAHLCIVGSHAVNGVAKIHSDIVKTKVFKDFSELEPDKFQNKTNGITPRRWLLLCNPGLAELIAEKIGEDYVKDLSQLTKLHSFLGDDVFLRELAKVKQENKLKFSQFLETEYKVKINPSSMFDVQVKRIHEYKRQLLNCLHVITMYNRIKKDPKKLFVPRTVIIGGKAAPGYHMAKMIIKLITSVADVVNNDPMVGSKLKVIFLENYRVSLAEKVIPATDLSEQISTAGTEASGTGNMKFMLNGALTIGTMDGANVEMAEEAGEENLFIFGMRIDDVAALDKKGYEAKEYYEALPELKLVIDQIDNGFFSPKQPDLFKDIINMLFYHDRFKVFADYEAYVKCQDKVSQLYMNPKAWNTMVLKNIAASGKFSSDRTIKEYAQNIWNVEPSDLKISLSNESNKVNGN
Procedure: The activity of the compounds is alternatively determined by measuring the inhibitory effect of the compounds on glycogen degradation, the production of glucose-1-phosphate from glycogen is monitored by the multienzyme coupled assay, as described in EP 0 846 464 A2, general method of Pesce et al (Pesce, M A, Bodourian, S H, Harris, R C, and Nicholson, J F (1977) Clinical Chemistry 23, […]). The reactions were in 384 well microplate format in a volume of 50 μl. The change in fluorescence due to the conversion of the co-factor NAD to NADH is measured at 340 nm excitation, 465 nm emission in a Tecan Ultra Multifunctional Microplate Reader. The reaction is in 50 mM HEPES, 3.5 mM KH2PO4, 2.5 mM MgCl2, 2.5 mM ethylene glycol-bis(b-aminoethyl ether) N,N,N′,N′-tetraacetic acid, 100 mM KCl, 8 mM D-(+)-glucose pH7.2, containing 0.5 mM dithiothreitol, the assay buffer solution. Human recombinant liver glycogen phosphorylase a (hrl GPa) 20 nM is pre-incubated in assay buffer solution with 6.25 mM NAD, 1.25 mg type III glycogen at 1.25 mg ml^−1 the reagent buffer, for 30 minutes. […] The non-inhibited activity of GPa is measured in the presence of 10 μl 5% DMSO in assay buffer solution and maximum inhibition measured in the presence of 5 mgs ml^−1 N-ethylmaleimide. […] Relative Fluoresence Units (RFUs) are measured at 340 nm excitation, 465 nm emission. […]

Compound: O=C(N[C@@H](Cc1ccc(F)cc1)C(=O)N1CCC(O)CC1)c1cc2cc(Cl)ccc2[nH]1 [CP320626]
glucagon stimulated glycogenolysis [1]: reduce | glucose output in hepatocytes [1]: reduce | plasma glucose concentration [2]: reduced, in a dose related manner

Compound: CCN1C(C)=C(C(=O)OC(C)C)C(c2ccccc2Cl)C2=C1COC2=O (stereo not drawn) [Bay R 3401]
arterial plasma glucose following a glucagon challenge [3]: reduced significantly | hepatic glucose output following a glucagon challenge [3]: reduced significantly

Compound: CN(C)C(=O)[C@H](O)[C@H](Cc1ccccc1)NC(=O)c1cc2cc(Cl)ccc2[nH]1 [CP91149]
glucagon stimulated glycogenolysis [1]: reduce | glucose output in hepatocytes [1]: reduce | plasma glucose concentration [2]: reduced, in a dose related manner

IC50 [4]: 550 nM
Compound: O=C(NCC(=O)N(CCO)c1ccccc1)c1cc2cc(Cl)ccc2[nH]1 [Example 1, 5-Chloro-N-{2-[(2-hydroxyethyl)phenylamino]-2-oxoethyl}-1H-indole-2-carboxamide]
